Assay results from patent publication US20260021132A1, “PHARMACOLOGICAL THERAPY FOR MITOCHONDRIAL DNA DEPLETION DELETIONS SYNDROME INVOLVING MUTATIONS IN THE GUK1 GENE” (The Trustees of Columbia University in the City of New York, priority 2023, published 2026).

What was measured:
GUK1 patient fibroblasts = test: mtDNA content of proliferating GUK1 patient fibroblasts (quantitative Real-Time PCR, mtDNA/nDNA); format: cell-based, human; conditions: three different GUK1 patient proliferating fibroblasts, FIG. 3B
Description: Levels of mtDNA were measured by quantitative Real-Time PCR (in triplicate) and expressed as mtDNA/nDNA (12S/RNase P) and levels are expressed as percent relative to control fibroblast mtDNA. * indicates p<0.05. P values determined by Mann-Whitney U test. Initially, GUK1 mutant patient fibroblasts will be supplemented with dG. Based on published reports of deoxynucleoside supplementation for rescue of other models of mtDNA depletion, fibroblast culture media will be supplemented with dG at concentrations ranging from 1 μM to 400 μM (Camara, et al. 2014; Pontarin, et al. 2012; […], et al. 2003; Bulst, et al. 2012). Throughout each experiment, fibroblasts will be actively proliferating to emphasize use of the de novo dNTP synthesis pathway. The primary outcome measure will be mtDNA copy number comparing untreated and dG-supplemented fibroblasts. To complement the mtDNA results, it will be determined whether the mitochondrial dGTP concentration increases with dG supplementation by measuring mitochondrial dNTP pools. As a functional measure of mitochondrial rescue in treated fibroblasts, we will also measure OxPhos activity.

[1] = tested on: dGK-deficient fibroblasts; conditions: cited from earlier work
[2] = mice; cited from earlier work

SMILES	mtDNA as compared to untreated (GUK1 patient fibroblasts; dG at 1 μM alone)	efficacy of purine supplementation [1]	circulating dG [2]	mtDNA as compared to untreated (GUK1 patient fibroblasts; forodesine at 1 mM alone)
Nc1nc2c(ncn2[C@H]2C[C@H](O)[C@@H](CO)O2)c(=O)[nH]1 [dG, deoxyguanosine]	increase			
O=c1[nH]cnc2c([C@@H]3N[C@H](CO)[C@@H](O)[C@H]3O)c[nH]c12 [forodesine]		enhances the efficacy of purine supplementation	can increase circulating dG	increase
